# Test results taken from PubChem BioAssay AID1996.
# Conditions: buffer; pH 7.4; 200.0 µM
row,SMILES,solubility kinetic
1,COCCn1c(C)cc(/C=C2/SC(=O)N(C(C)C(=O)OC)C2=O)c1C (centres undefined),36 µg/mL
2,CC(C)CCC1(CCNC(=O)c2cccs2)CCOC(C)(C)C1 (centres undefined),22.4 µg/mL
3,O=C(Nc1ccc(OC(F)(F)F)cc1)c1ccc2nc[nH]c2c1,14.9 µg/mL
4,Cc1cccc(C(=O)OCC(=O)NC2CCCCCCC2)c1,21.6 µg/mL
5,N#C/C(=C\C=C\c1ccccc1)C(=O)NCc1cccnc1,6.3 µg/mL
6,O=C1CC(N2CCOCC2)C(=O)N1c1ccc(Cl)cc1 (centres undefined),> 44.2 µg/mL
7,COc1ccc(CNc2ncnc3ccccc23)cc1,> 39.8 µg/mL
8,O=C(Nc1nccs1)c1ccc(-c2ccc(F)cc2)o1,1.5 µg/mL
9,CC(=O)c1ccc(N2CCN(C(=O)Nc3ccc(Cl)cc3)CC2)cc1,1.3 µg/mL
10,Cc1ccc(C)c(N2CCN(c3ccc([N+](=O)[O-])cn3)CC2)c1,< 0.2 µg/mL
11,CC(C)C(=O)NC(NC1CCS(=O)(=O)C1)C(Cl)(Cl)Cl (centres undefined),> 52.8 µg/mL
12,COc1ccc(/C=N\Nc2ncc(F)c(N3CCOCC3)n2)cc1OC,> 54.2 µg/mL
13,Cc1ccc(C(=O)Nc2ccc3c(c2)OCCO3)cc1,40.4 µg/mL
14,O=C(Nc1ccccc1)Nc1ccc(NC(=O)c2ccccc2O)cc1,< 0.2 µg/mL
15,CCOc1ccc(C(=O)OCC(=O)NCC2CCCO2)cc1 (centres undefined),> 46.1 µg/mL
16,COc1cc(N)c(Cl)cc1C(=O)OCC(=O)NC1CCCC1,> 49 µg/mL
17,CS(=O)(=O)Nc1ccc(S(=O)(=O)N2CCCC2)cc1,> 45.7 µg/mL
18,Cc1ccc(S(=O)(=O)N2CCN(C(=O)c3ccco3)CC2)c(C)c1,49 µg/mL
19,COC(=O)Cn1cc([N+](=O)[O-])nc1C,> 29.9 µg/mL
20,CC1(c2ccc(Cl)cc2)NC(=O)N(CC(=O)NC2CCCCC2)C1=O (centres undefined),> 54.6 µg/mL

row,SMILES,solubility kinetic
1,CC(=O)c1cccc(NC(=O)c2ccc3ccccc3c2)c1,1.9 µg/mL
2,O=C(COC(=O)c1cnccn1)NC(=O)c1ccccc1,> 42.8 µg/mL
3,CCOc1ccc(NC(=O)N(c2ccccc2)c2ccccc2)cc1,2.5 µg/mL
4,CCCS(=O)(=O)Nc1cccc(-c2cn3c(n2)SCC3)c1,> 48.5 µg/mL
5,O=C(Cc1ccc(Br)cc1)Nc1nc2ccccc2[nH]1,2.4 µg/mL
6,O=C1CCC(=O)N1Cc1c(Cl)cccc1Cl,35.5 µg/mL
7,O=S(=O)(Cc1ccccc1)NCCc1ccc(F)cc1,34.3 µg/mL
8,COc1ccc(C2SCC(=O)N2c2ccc(OC)cc2)cc1 (centres undefined),45.7 µg/mL
9,COC(=O)c1c(NC(=O)C(C)(C)C)csc1C,18.1 µg/mL
10,CC(C)CN1C(=O)NC2(CCCc3ccccc32)C1=O (centres undefined),> 40.9 µg/mL
11,COC(=O)c1sc(-c2ccccc2)cc1NC(=O)C1CC1,0.7 µg/mL
12,Cc1ccccc1N1CCN(CCCN2C(=O)C3CCCCN3C2=O)CC1 (centres undefined),40.7 µg/mL
13,CCc1ccc(NC(=O)NCCCN2CCCC2=O)cc1,> 43.4 µg/mL
14,CCN(C(=S)NC(=O)c1ccco1)c1cccc2ccccc12,46.5 µg/mL
15,CCOCCCNC(=O)C1CC(=O)N(CCc2ccccc2)C1 (centres undefined),41.7 µg/mL
16,O=C(Nc1ccc(F)cc1)Nc1sccc1-c1nc2ccccc2s1,1.1 µg/mL
17,CN(C(=S)Nc1ccc(SC(F)F)cc1)c1ccc(O)cc1,> 51.1 µg/mL
18,CCS(=O)(=O)c1ccc(O)c(NC(=O)Nc2ccc(C(C)(C)C)cc2)c1,0.8 µg/mL
19,CCOc1ccc(C2NC(=O)c3ccccc3O2)cc1OCC (centres undefined),13.8 µg/mL
20,COc1ccc(-c2ccc(C(=O)O)o2)c([N+](=O)[O-])c1,> 39.5 µg/mL

row,SMILES,solubility kinetic
1,COc1ccc(C(=O)N/N=C\c2ccoc2)cc1,> 36.6 µg/mL
2,O=C(CCS(=O)(=O)c1ccccc1)NCc1ccccc1,> 45.5 µg/mL
3,COc1cc(NC(=O)c2ccc(S(=O)(=O)N(C)c3ccccc3OC)cc2)cc(OC)c1,4.5 µg/mL
4,COc1ccc(CCNC(=O)C2CC(O)CN2S(=O)(=O)c2ccc(Cl)cc2)cc1OC (centres undefined),> 70.3 µg/mL
5,O=S(=O)(O)c1cccnc1SCc1ccccc1,41 µg/mL
6,COCCn1c(SCC(=O)N2CCOCC2)nc2ccccc2c1=O,51.5 µg/mL
7,CC(=O)c1cn(CC(=O)NCCc2c[nH]c3ccccc23)c2ccccc12,2.6 µg/mL
8,CSCCC(NC(=O)/C(=C/c1ccco1)NC(=O)c1ccco1)C(=O)O (centres undefined),> 56.8 µg/mL
9,Cc1ccccc1OCCCCn1c(CO)nc2ccccc21,29.2 µg/mL
10,COC(=O)c1ccc(NC(=O)Nc2ccccc2C)cc1,4.3 µg/mL
11,O=[N+]([O-])c1ccc(Cl)cc1NCC1CCCO1 (centres undefined),28 µg/mL
12,COCCNC(=S)N1CCN(C)CC1.O=C(O)C(=O)O,> 46.1 µg/mL
13,O=C(Nc1ncccc1Cl)c1cc2ccccc2o1,11.4 µg/mL
14,COc1cc(OC)c(C(=O)O/N=C(\N)c2ccccn2)cc1OC,> 49.7 µg/mL
15,CCOc1ncccc1C(=O)OCc1cccc([N+](=O)[O-])c1,0.5 µg/mL
16,O=C(Cc1ccc(F)cc1)NC1CCCCCC1,> 37.4 µg/mL
17,O=C(NC(=S)N1CCCC(C(F)(F)F)C1)c1ccc(F)cc1 (centres undefined),37.9 µg/mL
18,Cn1c(O)c(C=NCCN2CCNCC2)c(=O)[nH]c1=O,> 42.2 µg/mL
19,O=C(CCCc1ccccc1)NCc1ccc(Cl)cc1,27.7 µg/mL
